How the values were obtained:
[1] = test system: Huh-7 cells; assay: Dose response of cell uptake, fluorescence in cell lysate; type: cell-based, human; settings: 24 h exposure
From the text: Quantification in Cell Lysate: For dose response experiments of the uptake of compounds 7 and 17, total cell lysates of the exposed cells were collected and measured on an Optima Blue Fluostar plate reader (BMG Labtech) with lysis buffer as background. 2CNqATP was excited using 355 nm (±20 nm) filter and emission was collected at through a bandpass filter centred at 460 nm (±12 nm). pATP was excited using 380 nm (±5 nm) filter and emission bandpass filter centred at 410 nm (±5 nm). Lysate buffer fluorescence was subtracted as background, and the fluorescence intensities of the triplicates were averaged. The fluorescence intensity was normalized to the highest added concentration of the compounds (10 μM).
Dose-response experiments were performed at one selected time point (24 h) in order to investigate the concentration dependency of cellular FBA-TP uptake. At the end of exposure, the cells were washed and lysed. The fluorescence of the compounds in the lysate, reflecting the internalized FBA, was measured using a plate reader. […] Compounds 7 and 17 show very different uptake characteristics. Cellular uptake of 2CNqATP increases dramatically with small increases in concentration and reaches a maximum, indicative of uptake saturation, already when 2.5 μM FBA-TP is added to the cells. By contrast, the increase of pATP emission between 0 and 2.5 μM is very small, only 4% of that of 2CNqATP, but when FBA-TP concentration is doubled it increases about 7 times. By adding 10 μM FBA-TP the fluorescence increases about 25 times, compared to 2.5 μM added compound.

[2] = test system: Huh-7 cells; assay: Uptake competition with ATP or adenosine; type: cell-based, human; settings: 2.5 μM compound, 4 h, increasing ATP or adenosine
Description: Uptake of 2CNqATP and pATP was compared with natural adenosine triphosphate (ATP) or adenosine (both purchased from Sigma-Aldrich). The readout is based on the fluorescence of the compounds, detected in living cells by flow cytometry or in cell lysate using a microplate reader following co-administration with increasing concentrations of natural ATP or adenosine.
Cells were seeded in a 96-well plate. Treatment solutions with ATP or adenosine were prepared by stepwise dilution in CCM to reach the concentrations shown in FIG. 7. 2CNqATP or pATP were added at a concentration of 2.5 μM. The cells were incubated for 4 h at 37° C. and 5% CO2. Cell morphology was checked under a light microscope.
For flow cytometry, the treated cells were washed three times with DPBS and detached with 0.25% trypsin-EDTA, which was then neutralized with CCM. Samples were transferred to a 96 U-well plate for high throughput readout on a BD LSRFortessa flow cytometer. Samples were excited using a 405 nm laser and emission passed through a bandpass filter centred at 450 nm (±20 nm).
For lysate readout, cells were lysed in 5x passive lysis buffer (Promega) for 1 h rocking at room temperature (ca. 22° C.). Fluorescence was recorded on an Optima Blue Fluostar plate reader (BMG Labtech). 2CNqATP was excited at 355 nm (±20 nm) and emission was detected using bandpass filter centered at 460 nm (±12 nm). […]

[3] = test system: Huh-7 cells; assay: Cellular incorporation into RNA (emission of extracted RNA); type: cell-based, human; settings: 24 h exposure; for emission of RNA extracted from exposed cells (in-cellulo RNA labelling): excitation 350 nm (2CNqA) or 370 nm (pA)
Description: RNA Extraction: Cells were seeded in 12-well plates as described above. Treatment solutions were prepared by diluting compounds 7 and 17 to a concentration of 2.5 μM or 5 μM in CCM. Conditioned medium was removed from the cells and treatment solutions were added. For control cells CCM alone was added. Cells were incubated for 24 h at 37° C. and 5% CO2. For RNA extraction and purification, a QIAGEN RNeasy Mini Kit was used, following the manufacturer's protocol. Briefly, the cells were washed with DPBS, lysed, homogenized by 12 times passing it through a 20-gauge needle (0.9 mm outer diameter), and added to an equal volume of ethanol. The resulting solution was transferred to a RNeasy spin column and centrifuged. Then, binding buffer was added on top of the column, where after it was centrifuged again. The column-bound RNA was washed five times with washing buffer, with a centrifugation step between each addition. To elute the extracted RNA, 30 μL of the provided RNase-free water was applied to the column and centrifuged. This step was repeated twice to increase the yield of extracted RNA.
Three control samples were prepared to examine potential FBA-TP interferences with the extraction procedure, as well as non-covalent binding between the FBA-TP and RNA. 1) FBA-TP was added to the kit's lysate buffer to a concentration of 2.5 μM and treated in the same way starting from the homogenization step. 2) Unexposed cells were seeded and lysed as described above and FBA-TP was thereafter added directly to the lysate to make up a 2.5 μM final concentration. […] The concentration and purity of the RNA extracted from the unexposed cells were determined using a NanoDrop 2000 spectrophotometer (Thermo Scientific) and FBA-TP was added to reach a final concentration of 2.5 μM in the solution. […]
Absorption and Emission Readout of cellular RNA: Absorption spectra of extracted and purified RNA samples and controls were recorded on a Cary 4000 spectrometer (Agilent Technologies) between 200 nm and 600 nm. Emission spectra were measured on a SPEX Fluorolog 3 spectrofluorimeter (Jobin Yvon Horiba). […]

[4] = DPBS, room temperature; cited from earlier work

Substance | fold increase of lysate fluorescence at 10 μM compared to 2.5 μM [1] | fold increase of lysate fluorescence when concentration is doubled from 2.5 μM [1] | increase of emission between 0 and 2.5 μM relative to that of 2CNqATP [1] [%] | uptake competition with ATP and adenosine [2] | emission of RNA extracted from exposed cells (in-cellulo RNA labelling) [3] | ε260 [4] | added concentration at which uptake reaches maximum (saturation) [1] [µM] | emission maximum of RNA extracted from exposed cells ([3]; excitation at 350 nm) [nm]
((2R,3S,4R,5R)-5-(2,3,5,6-tetraazacyclopenta[de]tetracen-2(6H)-yl)-3,4-dihydroxytetrahydrofuran-2-yl)methyl hydrogen triphosphate [pATP] | about 25 times | about 7 times | 4 | also competes with ATP and adenosine, but the effect is considerably weaker | on the same level as the controls | 22300^27 M^−1 cm^−1 |  | 
((2R,3S,4R,5R)-5-(8-cyano-2,3,5,6-tetraazaaceanthrylen-2(6H)-yl)-3,4-dihydroxytetrahydrofuran-2-yl)methyl hydrogen triphosphate [2CNqATP] |  |  |  | competes with both ATP and adenosine with a stronger competition effect for ATP at low concentrations | significant emission peak | 14600^26 M^−1 cm^−1 | 2.5 | 460
